Structure (SMILES)	melting point [°C]
CCOC(=O)c1c(N)c(C#N)cn1C	159 to 161
Nc1cc(F)ccc1NC(=O)c1ccccn1	101 to 103
Nc1ccnc2ccncc12	254 to 256
CC(Cl)C(=O)NC1CC1 (centres undefined)	67 to 71
CCc1cccc(CC)c1Nc1nnc(S)s1	165 to 167
Cc1ccc(-c2n[nH]c(S)nc2=O)cc1	225 to 227
CC1CCCC(=O)N1 (centres undefined)	87 to 89
CC(C)Oc1cccnc1C(=O)O	199 to 201
CC(C)Oc1ccc(C(O)CN)cc1 (centres undefined)	62 to 64
O=C(Nc1sccc1C(=O)O)c1ccco1	196 to 198
O=C(NC(C(=O)O)c1ccccc1)c1ccccc1 (centres undefined)	198 to 200
NCc1nc2cc(Cl)ccc2s1	68 to 70
Nc1c[nH]nc1-c1ccccc1	147 to 149
CN(C)c1ccc(C#N)cc1F	34 to 36
O=C1Nc2ccc(S(=O)(=O)Cl)c3cccc1c23	197 to 199
Cc1c(C(=O)O)ccc2cnc(C3CC3)n12	204 to 206
COC(=O)c1cccc(C(N)=S)c1	137 to 139
CCc1oc2ccccc2c1C(=O)O	89 to 91
COc1cccc(-c2nonc2N)c1	74 to 76
Nc1nonc1-c1ccccc1	96 to 98

Structure (SMILES)	melting point [°C]
Cc1cnn(Cc2cc(C(=O)O)no2)c1	163 to 165
Nc1ccccc1N1CCN(CCc2ccncc2)CC1	119 to 121
CC(=O)Nc1ccc(C(=O)CCl)c(F)c1	128 to 130
N#Cc1ccc(N2C(=O)C=CC2=O)cc1	138 to 140
CCCc1nn(-c2ccccc2F)c(Cl)c1C(=O)O	169 to 171
Cc1cc(C)cc(OCCC(=O)O)c1	88 to 90
Nc1cccc(CN2C(=O)CNC2=O)c1	159 to 161
NCC1(O)CCOCC1	65 to 67
Cc1c(N)cnn1CCC(C)C	46 to 48
FC(F)c1nc2c(Cl)cccc2[nH]1	125 to 127
Fc1cccc(-c2nc(CCl)co2)c1	55 to 57
CC1(C)NC(=O)N(CCCC(=O)O)C1=O	97 to 99
Cc1ccc(C(=O)Nc2cccc(C=O)c2)cc1	130 to 132
CS(=O)(=O)c1ccc(F)c(C(=O)O)c1F	175 to 177
Cc1nn(C)c(C)c1O	186 to 188
CCOC(=O)c1sc(N)c(C(=O)c2ccccc2)c1C	119 to 121
O=C(O)C1CC12CCOc1ccccc12 (centres undefined)	159 to 161
O=C(O)c1c(C(F)(F)F)nn(-c2ccccc2)c1C(F)(F)F	156 to 158
COC(=O)c1cnn2c1CCCC2	64 to 66
O=C(O)c1cccn1Cc1ccccn1	172 to 174

Structure (SMILES)	melting point [°C]
CC(C)c1ccccc1OCCC(=O)O	84 to 86
O=C(O)c1c[nH]c2ccccc2c1=O	250 to 252
Cc1cc(C=O)c(C)n1CC#N	122 to 124
CC(C)C1=NN(C)C(=O)C1	110 to 112
Nc1c(NCCCO)c(=O)[nH]c(=O)n1Cc1ccccc1	155 to 157
O=C(CCl)Nc1cccc(S(=O)(=O)N2CCOCC2)c1	157 to 159
Nc1nc(-c2cccc(F)c2)cs1	113 to 115
COC(=O)c1ccc(N)cc1C	69 to 71
CN(C)Cc1ccc(-c2ccccc2C#N)cc1	44 to 46
C#CCn1c(C)nc2ccccc21	67 to 69
CN1CCN(CCC(=O)NN)CC1	87 to 89
CS(=O)(=O)c1ccc(F)c(S(=O)(=O)Cl)c1	122 to 124
Cc1ccc(-c2nnn(CC(=O)O)n2)cc1	188 to 190
O=C(O)c1ccc(NC(=O)C2CC2)cc1	274 to 276
Cc1ccc2oc(C(=O)O)c(C)c2c1	180 to 182
CS(=O)(=O)c1cc(S(=O)(=O)Cl)c(Cl)s1	124 to 126
N#CCN1CCN(c2ncccn2)CC1	99 to 101
NC(=O)NC(=O)OCCCl	185 to 187
COC(=O)c1ccc2[nH]ncc2c1	193 to 195

From a melting point compilation (Tetko et al.)
